According to US4309559A, “Sulphonamides useful as pesticides” (FBC Limited, priority 1977, dated 1982):
Where two headings read alike, the source gives them in different places.

Tests used:
[1] = system: potato blight, Phytophthora infestans; format: in vivo; conditions: 5 days, controls less than 5%
Peas (Pisum sativum) [2] = experiment: Post-emergence foliar spray, herbicidal/growth regulant response, peas; format: in vivo; conditions: Lathyrus oleraceus, 168 h, foliar spray 11.2 kg/ha, 7 days, 0=no effect, 100=complete kill, read-out: herbicidal or growth regulant response index
Method: (§1) Seeds of the plant species listed below were sown in anodised aluminium pans, 19 cm long×9.5 cm wide×5 cm deep, containing John Innes I potting compost. They were then watered and placed in a controlled environment room (22° C.; 65-85% relative humidity; 14 hours per day artificial illumination at 13,000 lux). Fourteen days after sowing, the seedlings received a foliar spray of a compound listed below, formulated as a solution in 1:1 by volume aqueous acetone. The concentration of active ingredient and volume of application were adjusted so as to be equivalent to a rate of 11.2 kg/ha in 450 liters per hectare. After seven days growth in the controlled environment room, the plants were visually assessed for any herbicidal or growth regulant response. All differences from the untreated control were scored according to an index where 0=no effect and 100=complete kill.
(§2) The product of Example 95 was tested according to the procedure of Examples 49-55.

Mustard (Sinapis alba) [3] = experiment: Post-emergence foliar spray, herbicidal/growth regulant response, mustard; format: in vivo; conditions: 168 h, foliar spray 11.2 kg/ha, 7 days, 0=no effect, 100=complete kill, read-out: herbicidal or growth regulant response index
Method: as §1, §2

[4] = system: Linseed (Linum usitatissimum); experiment: Post-emergence foliar spray, herbicidal/growth regulant response, linseed; format: in vivo; conditions: 168 h, foliar spray 11.2 kg/ha, 7 days, 0=no effect, 100=complete kill, read-out: herbicidal or growth regulant response index
Method: as §1, §2

[5] = system: Ryegrass (Lolium perenne); experiment: Post-emergence foliar spray, herbicidal/growth regulant response, ryegrass; format: in vivo; conditions: 168 h, foliar spray 11.2 kg/ha, 7 days, 0=no effect, 100=complete kill, read-out: herbicidal or growth regulant response index
Method: as §1, §2

[6] = system: Sugarbeet (Beta vulgaris); experiment: Post-emergence foliar spray, herbicidal/growth regulant response, sugarbeet; format: in vivo; conditions: 168 h, foliar spray 11.2 kg/ha, 7 days, 0=no effect, 100=complete kill, read-out: herbicidal or growth regulant response index
Method: as §1, §2

Oat (Avena sativa) = experiment: Post-emergence foliar spray, herbicidal/growth regulant response, oat; format: in vivo; conditions: 168 h, foliar spray 11.2 kg/ha, 7 days, 0=no effect, 100=complete kill, read-out: herbicidal or growth regulant response index
Method: as §1, §2

Peas (Pisum sativum) [7] = experiment: Soil incorporation (attaclay/sand dust), growth regulatory or herbicidal effects, peas; format: in vivo; conditions: Lathyrus oleraceus, 504 h, soil incorporation 130 ppm, 21 days, 0=no effect, 100=complete kill/suppression, read-out: growth regulatory or herbicidal effect score
Description: (§3) The compounds listed below were each formulated as an attaclay/sand dust and incorporated into John Innes I potting compost at a rate equivalent to 26 parts per million weight/volume of active ingredient to soil and placed in anodised aluminium pans, 19 cm long×9.5 cm wide×5.0 cm deep. This rate is approximately equivalent to a soil surface application of 11.2 kg active ingredient/hectare cultivated to a depth of 5 cm. Seeds of the species listed below were sown in the treated soil, watered and placed in a controlled environment room (22° C.; 65-85% relative humidity; 14 hours per day artificial illumination at 13,000 lux) for 21 days. The plants were then visually assessed for any growth regulatory or herbicidal effects. All differences from an untreated control were scored on a scale from 0-100, where 0 signifies no effect and 100 signifies complete kill.
(§4) The compounds listed below were tested according to the procedure of Examples 56-60 but at 130 parts per million weight/volume of active ingredient to soil. This rate is approximately equivalent to a soil surface application of 56 kg active ingredient per hectare cultivated to a depth of 5 cm.
(§5) The product of Example 95 was tested according to the procedure of Examples 56-60 but at 130 and 26 parts per million weight/volume. The results were as follows:
(§6) N-(2-oxopropyl)-2'-chloro-6'-methyl-methanesulphonanilide, formulated as an attaclay/sand dust, was incorporated in John Innes I potting compost at a rate equivalent to 130 parts per million weight/volume of active ingredient to soil and placed in anodised aluminium pans, 19 cm long×9.5 cm wide×5.0 cm deep. These rates are approximately equivalent to a soil surface application of 56 kg active ingredient per hectare cultivated to a depth of 5 cm. Seeds of Peas, Mustard, Linseed, Maize, Oats and Ryegrass were sown in the treated soil, watered and placed in a controlled environment room (22° C.; 65-85% relative humidity; 14 hours artificial illumination at 13000 lux) for 21 days.
(§7) The plants were then visually assessed for any growth regulatory or herbicidal effects. All differences from an untreated control were scored on a scale from 0-100, where 0 signifies no effect and 100 signifies complete suppression.

Mustard (Sinapis alba) [8] = experiment: Soil incorporation (attaclay/sand dust), growth regulatory or herbicidal effects, mustard; format: in vivo; conditions: 504 h, soil incorporation 130 ppm, 21 days, 0=no effect, 100=complete kill/suppression, read-out: growth regulatory or herbicidal effect score
Description: as §3, §4, §5, §6, §7

[9] = system: Linseed (Linum usitatissimum); experiment: Soil incorporation (attaclay/sand dust), growth regulatory or herbicidal effects, linseed; format: in vivo; conditions: 504 h, soil incorporation 130 ppm, 21 days, 0=no effect, 100=complete kill/suppression, read-out: growth regulatory or herbicidal effect score
Description: as §3, §4, §5, §6, §7

Maize (Zea mays) = experiment: Soil incorporation (attaclay/sand dust), growth regulatory or herbicidal effects, maize; format: in vivo; conditions: 504 h, soil incorporation 130 ppm, 21 days, 0=no effect, 100=complete kill/suppression, read-out: growth regulatory or herbicidal effect score
Description: as §3, §4, §5, §6, §7

Oats (Avena sativa) = experiment: Soil incorporation (attaclay/sand dust), growth regulatory or herbicidal effects, oats; format: in vivo; conditions: 504 h, soil incorporation 130 ppm, 21 days, 0=no effect, 100=complete kill/suppression, read-out: growth regulatory or herbicidal effect score
Description: as §3, §4, §5, §6, §7

[10] = system: Ryegrass (Lolium perenne); experiment: Soil incorporation (attaclay/sand dust), growth regulatory or herbicidal effects, ryegrass; format: in vivo; conditions: 504 h, soil incorporation 130 ppm, 21 days, 0=no effect, 100=complete kill/suppression, read-out: growth regulatory or herbicidal effect score
Description: as §3, §4, §5, §6, §7

[11] = system: potato blight Phytophthora infestans; format: in vivo; conditions: 2000 ppm; 5 days; controls less than 5%
[12] = system: barley powdery mildew Erysiphe graminis; experiment: Barley powdery mildew control on barley plants; format: in vivo; conditions: 2000 ppm; soil and leaves; 10 days; controls less than 5%
Pythium ultimum [13] = experiment: Fungal growth on the surface of soil infected with damping-off disease organism; format: in vivo; conditions: 6 days, 25° C., 0-8 scale
Method: (§8) A one week old maize meal/sand culture of the damping-off disease organism Pythium ultimum was thoroughly mixed by hand with clean sterile John Innes No. 1 potting compost in the ratio of 3 kg culture to 12 liters of soil. The infected soil was then left for approximately 18 hours before use. Each of the compounds listed below was ground together with a wetting agent, Tween 20 (1% of final volume), until a solution or fine suspension was produced which was then diluted with distilled water to give 160 ml of solution containing 1500, 500, 150 or 50 ppm active ingredient. 15 ml aliquots of this solution were added to 75 g portions of the soil infected with Pythium ultimum which were contained in small plastic cartons, 60 mm diameter×55 mm high. Fifteen cabbage seeds, variety Flower of Spring, were placed in a circular depression in the treated infected soil, recovered, and the whole sealed with a plastic cap. The cartons were then placed in a constant temperature room at 25° C.±1° C. Four replications per treatment were made with one additional treatment where seeds were sown in soil which was chemically treated only, i.e. there was no infection. This latter treatment was included to measure the direct effect of the chemical on the germination of the seed. After six days the cartons were removed from the controlled temperature chamber and assessed for degree of fungal growth on the soil surface and percentage of seedling emergence. The results of both these assessments are expressed in a 0-8 scale as follows:
(§9) One week old maize meal/sand culture of the damping-off disease organism Pythium ultimum was thoroughly mixed by hand with clean sterile John Innes No. 1 potting compost in the ratio of 3 kg culture to 12 liters of soil. This infected soil was then left for approximately 18 hours before use. The compounds listed in the Table below were each ground with the wetting agent Tween 20 (1% of final volume), until a solution or fine suspension was produced, which was then diluted with distilled water to give 160 ml of solution containing 1500 or 500 parts per million (ppm) active ingredient. 15 ml aliquots of this solution were added to 75 g portions of the soil infected with Pythium ultimum which were contained in small plastic cartons, 60 mm diameter×55 mm high.
(§10) Fifteen cabbage seeds, variety Flower of Spring, were placed in a circular depression in the treated infected soil, recovered, and the whole sealed with a plastic cap. The cartons were then placed in a constant temperature room at 25° C.±1° C. Four replications per treatment were made, with one additional treatment where seeds were sown in soil which was chemically treated only, i.e. there was no infection. This latter treatment was included to measure the direct effect of the chemical on the germination of the seed.
(§11) After six days, the cartons were removed from the controlled temperature chamber and assessed for degree of fungal growth on the soil surface and percentage of seedling emergence. The results of both these assessments are expressed in a 0-8 scale as follows:
(§12) N-(2-oxopropyl)-3',4'-dimethyl-methanesulphonanilide was tested at a dose rate of 300 ppm in the test described in Examples 233 and 234. It gave a mycelial control score of 0 and a germination score of 3 whereas the untreated samples gave a score of 0 for both.

Pythium ultimum [14] = experiment: Cabbage seedling emergence in soil infected with Pythium ultimum; format: in vivo, Pythium ultimum (on cabbage, variety Flower of Spring); conditions: 6 days, 25° C., 0-8 scale
Method: as §8, §9, §10, §11, §12

| SMILES | pest or weed control at 11200 g/ha (Peas (Pisum sativum) [2]) [%] | pest or weed control at 11200 g/ha (Mustard (Sinapis alba) [3]) [%] | pest or weed control at 11200 g/ha [4] [%] | pest or weed control at 11200 g/ha [5] [%] | plant injury at 11200 g/ha [6] [%] | plant injury at 11200 g/ha (Oat (Avena sativa)) [%] | pest or weed control at 130 µg/mL (Peas (Pisum sativum) [7]) [%] | pest or weed control at 130 µg/mL (Mustard (Sinapis alba) [8]) [%] | pest or weed control at 130 µg/mL [9] [%] | plant injury at 130 µg/mL (Maize (Zea mays)) [%] | plant injury at 130 µg/mL (Oats (Avena sativa)) [%] | pest or weed control at 130 µg/mL [10] [%] | also measured |
| --- | --- | --- | --- | --- | --- | --- | --- | --- | --- | --- | --- | --- | --- |
| CC(=O)CN(c1c(C)cccc1C)S(C)(=O)=O [Example 211, N-2-oxopropyl-2',6'-dimethyl-methanesulphonanilide] |  |  |  |  |  |  |  |  |  |  |  |  | % Control, potato blight ([1]; 125 ppm): 90%; % Control, potato blight ([1]; 500 ppm): 94%; % Control, potato blight ([1]; 2,000 ppm): 99% |
| CCOC(=O)C(C)N(c1ccccc1Cl)S(C)(=O)=O (stereo not shown) [Example 25] | 5 | 80 | 20 | 0 | 30 | 20 | 5 | 100 | 50 | 40 | 20 | 0 |  |
| CCCCS(=O)(=O)N(c1c(C)cccc1C)C(C)C(=O)OCC (stereo not shown) [Example 27] | 5 | 100 | 70 | 20 | 90 | 30 | 20 | 100 | 100 | 100 | 100 | 100 |  |
| Cc1cccc(C)c1N(CC#N)S(C)(=O)=O [Example 46] |  |  |  |  |  |  | 20 | 100 | 90 | 30 | 70 | 80 | % Control, potato blight [11]: 56% |
| COC(C)(CN(c1c(C)cccc1C)S(C)(=O)=O)OC [Example 224, N-(2,2-dimethoxypropyl)-2',6'-dimethyl-methanesulphonanilide] |  |  |  |  |  |  |  |  |  |  |  |  | % Control, potato blight ([1]; 500 ppm): 55%; % Control, potato blight ([1]; 2,000 ppm): 98% |
| Cc1cccc(C)c1N(CCCC#N)S(C)(=O)=O [Example 146] |  |  |  |  |  |  |  |  |  |  |  |  | % Control, barley powdery mildew [12]: 92% |
| CCOC(=O)C(C)N(c1c(C)cccc1C)S(=O)(=O)CC (stereo not shown) [Example 26, N-(1-[ethoxycarbonyl]ethyl)-2',6'-dimethyl-ethanesulphonanilide] | 5 | 100 | 100 | 40 | 90 | 40 | 100 | 100 | 100 | 100 | 100 | 100 | Mycelial Control Score (Pythium ultimum [13]; 30 ppm): 0 (<20% inhibition); Mycelial Control Score (Pythium ultimum [13]; 100 ppm): 0 (<20% inhibition); Mycelial Control Score (Pythium ultimum [13]; 300 ppm): 0 (<20% inhibition); Germination Score (Pythium ultimum [14]; 30 ppm): 3 (45-54% inhibition); Germination Score (Pythium ultimum [14]; 100 ppm): 4 (55-64% inhibition); Germination Score (Pythium ultimum [14]; 300 ppm): 4 (55-64% inhibition) |
